# Entries after “also recorded” stand apart in the source; their conditions may differ.
# Key:
# Jagged1 [1] = assay: Jagged1 mRNA by real time RT-PCR in UMR106 cells; format: cell-based
# Experimental: UMR 106 cells were serum starved for 24 hours and then treated with a single dose of vehicle (controls) or PGE2 at a concentration of 10^-7 M. RNA was collected from both control and treated samples to assess the fold change in Jagged1 mRNA by real time RT-PCR analysis corrected for by beta-actin. FIG. 1B is a Western blot showing total protein that was collected from both control and treated samples exposed to Jagged1 antibody, C20. Positive control (+ctr) was provided by HS27a cells, a human stromal cell line with high levels of Jagged1 protein, while HS5 cells from a human stromal cell line with minimal Jagged1 levels were used as a negative control. […] UMR106 cells were serum starved for 24 hours. They were pre-treated with H89 for 30 minutes followed by a single dose of PGE2 at 10^-7 M or vehicle. RNA was collected from both control and treated samples to assess the fold change in Jagged1 RNA by real time RT-PCR analysis corrected for by β-actin. […] UMR106 cells were serum starved for 24 hours. […] Total protein was collected from both PGE2 and vehicle treated samples for Western blot analysis with Jagged1 antibody C-20. UMR106 cells were grown in DMEM supplemented with 1.5 g/l sodium bicarbonate, 10% FBS, penicillin (100 U/ml), streptomycin (100 U/ml). After three days of growth the cells were 80% confluent and media was replaced with serum-free media. After 24 hr in serum-free media, PGE2 was added in noted concentrations. UMR 106 cells were treated with the Protein Kinase A (PKA) inhibitors H89 (0.5 hr prior to PGE2 treatment), and myristoylated PKI (0.5 hr prior to PGE2 treatment). […] At the designated times, total RNA and protein were harvested. Total RNA was extracted and analyzed by real time RT-PCR, normalizing for β-actin expression and t=0. Total protein was analyzed by Western blots performed using the […] system (Invitrogen, Carlsbad, Calif.). Blots were probed with Jag1 c-20 antibody (Santa Cruz Biotechnology, Inc., Santa Cruz, Calif.), and the loading control was B-actin.
# Jagged1 [2] = assay: Jagged1 protein by Western blot in UMR106 cells; format: cell-based; conditions: UMR106 cells, PKI 200 μg/ml pre-treatment, then PGE2 10^−7 M
# Experimental: UMR 106 cells were serum starved for 24 hours and then treated with a single dose of vehicle (controls) or PGE2 at a concentration of 10^-7 M. RNA was collected from both control and treated samples to assess the fold change in Jagged1 mRNA by real time RT-PCR analysis corrected for by beta-actin. FIG. 1B is a Western blot showing total protein that was collected from both control and treated samples exposed to Jagged1 antibody, C20. Positive control (+ctr) was provided by HS27a cells, a human stromal cell line with high levels of Jagged1 protein, while HS5 cells from a human stromal cell line with minimal Jagged1 levels were used as a negative control. FIG. 2A is a graph showing that inhibition of PKA blocks PGE2-dependent increase of Jagged1 in UMR 106 cells. UMR106 cells were serum starved for 24 hours. They were pre-treated with H89 for 30 minutes followed by a single dose of PGE2 at 10^-7 M or vehicle. RNA was collected from both control and treated samples to assess the fold change in Jagged1 RNA by real time RT-PCR analysis corrected for by β-actin. […] UMR106 cells were serum starved for 24 hours. […] Total RNA was extracted and analyzed by real time RT-PCR, normalizing for β-actin expression and t=0. Total protein was analyzed by Western blots performed using the […] system (Invitrogen, Carlsbad, Calif.). […]
compound,measurement,setting,value
O=C(O)CC/C=C\CC[C@H]1[C@H](N2CCOCC2)C(=O)C[C@H]1OCc1ccc(-c2ccccc2)cc1 [AH23848],PGE2-induced expression of Jagged1,"Jagged1 [1]; osteoblastic cells pretreated 30 minutes with 30 μM AH23848, then PGE2",did not inhibit
"CCCC1([C@H](O)C/C=C/[C@H]2[C@H](O)CC(=O)[C@@H]2CCCCCCC(=O)OC)CCC1 [Butaprost, butaprost]",PGE2-induced Jagged1 expression,"Jagged1 [1]; UMR 106 cells, butaprost 10 μM",inhibited
O=S(=O)(NCCNC/C=C/c1ccc(Br)cc1)c1cccc2cnccc12 [H89],PGE2-dependent Jagged1 mRNA increase in presence of PKA inhibitor,"Jagged1 [1]; UMR106 cells, H89 pre-treatment 30 minutes, then PGE2 10^−7 M",blocked; also recorded: inhibited
"CCCC(=O)Nc1ncnc2c1ncn2[C@@H]1O[C@@H]2COP(=O)(O)O[C@H]2[C@H]1OC(=O)CCC [dibutyryl-cAMP, n6 2′-0-dibutyryladenosine-3′, 5′-cyclic monophpsphate]",Jagged1 increase by cAMP analogs that activate PKA,Jagged1 [1]; UMR106 cells,sufficient to increase Jagged1
myristoylated PKA Inhibitory Peptide (14-22) [PKI],PGE2-dependent Jagged1 protein increase in presence of PKA inhibitor,Jagged1 [2],blocked; also recorded: inhibited
